For assay [1], the system named is ascorbate/Fe²⁺-dependent lipid peroxidation. The assay can be described thus: Ascorbate/Fe²⁺-dependent lipid peroxidation (2-thiobarbituric acid-reactive material). In kind it is biochemical. The conditions noted are these: concentration required to inhibit lipid peroxidation by 50%; 200 µg/ml soy bean phospholipid, 10 µM iron, 100 µM ascorbic acid, 0.1 M KPi pH 7.4, room temperature, 30 min. The text has this: (§1) The most remarkable feature of the compounds of the invention is their efficacy as free-radical scavengers or antioxidants. An assay system measuring the concentration of the compounds of formulas (IA) and (IB) required to inhibit lipid peroxidation by 50% (IC₅₀) was used. Other assays described below are the red blood cell fragility test used for measuring membrane stabilisation by indenoindoles (Table 2), and protection by indenoindoles against cytotoxicity of N-methyl-N¹-nitro-N-nitrosoguanidine (MNNG) in rat hepatocytes (Table 3). MNNG is a highly cytotoxic agent, the mechanism of action of which may involve a radical-mediated membrane destabilization.
For the ferrous/ascorbate lipid peroxidation system, 6.25 ml of 0.1 M potassium phosphate buffer (KPi), pH 7.4, was added to 12.5 mg dried soy bean phospholipids. After flushing with argon for 2 min, the suspension was sealed with five layers of Parafilm and sonicated until the suspension was translucent. The final reaction mixture was composed of 200 µg/ml phospholipid, 10 µM FeNH₄ (SO₄)₂ or Fe(NH₄)₂(SO₄)₂, and 100 µM ascorbic acid in 0.1 M KPi (pH 7.4), and the antioxidant to be tested in acetone or DMSO. The volume of vehicle never exceeded 1% of the total volume. The reaction was initiated by the addition of ascorbic acid plus iron. The reaction was continued at room temperature in a shaking water bath for 30 min and then stopped by the addition of […] of 0.5 M butylated hydroxytoluene in DMSO. The above procedure and the subsequent determination of 2-thiobarbituric acid-reactive material is described in: Shertzer, H.G. et al, Biochem. Pharmacol. 37, 333 (1988). […]

The next assay deals with red blood cells. The assay is described as follows: Red blood cell fragility test (membrane stabilization, protection from osmolysis). In kind it is cell-based, Rats. As to conditions: red blood cell fragility protective index value: linear regression slope, percentage protection against osmolysis per µM protecting agent; rat blood, absorbance at 656 nm.
From the text: as §1
The membrane stabilization effect of indenoindoles was assayed by the red blood cell fragility test. Rats were anesthesized With 65 mg pentobarbital per kg body weight by i.p. injection. Blood samples were removed into a heparinized syringe from the left ventricle and diluted 20-fold with buffer containing 140 mM NaCl, 10 mM sodium citrate and 5 mM glucose (pH 7.4) at 0°C. Diluted blood was kept on ice. A 0.75 ml aliquot of blood was added to a 4 ml cuvette containing 10 µl DMSO or 10 µl of the antioxidant dissolved in DMSO vehicle. After 1 min of gentle swirling, 0.75 ml of 0.9 % NaCl or H₂O were added to the cuvette by forceful pipetting, and the absorbance at 656 nm was recorded with a Beckman DU-70 spectrophotometer. When H₂O was added in the absence of a stabilizing agent, absorbance decreased wtihin 15 sec to 0.8. Addition of NaCl instead of H₂O gave a time-independent absorbance of 2.2. In the presence of increasing concentrations of stabilizing chemicals, the absorbance decrease observed after the addition of water was diminished. The % protection from osmolysis was obtained from the equation [E(2.2- 0.8) - A/2.2-0.8)] x 100% [formula] , where A=2.2 minus the absor bance decrease when water is added in the presence of a known concentration of chemical. The % protection is then plotted against several concentrations of the chemical being treated. The red blood cell fragility protective index value (RBC-PIV) is the linear regression slope of this plot, expressed as the percentage protection against osmolysis per µM protecting agent. […]

In the next assay the test system is rat hepatocytes. The assay can be described thus: Protection against cytotoxic effects of MNNG in hepatocytes (trypan blue exclusion). In kind it is cell-based, male Sprague-Dawley rats. As to conditions: Hepatocyte, concentration of compound required to extend by 1 hour the time needed for MNNG (0.5 mM) to kill 50 % of the viable cells, read-out: IC₅₀.
From the text: as §1
The protective effects of indenoindoles on MNNG-induced cytotoxicity was assayed with rat hepatocytes. Hepatocytes were prepared from male Sprague-Dawley rats by collagenase treatment as originally described by Zahlten and Stratman (Zahlten, R.N. and Stratman, F.W., Arch. Biochem. Biophys. 163, 600 (1988)), as modified by Reitman et al (Reitman, F.A., Shertzer, H.G. and Berger, M.L., Biochem. Pharmacol. 37,3183 (1988)). In order to improve viability, cells were centrifuged through 0.508 g/ml Percoll (Pharmacia AB, Uppsala, Sweden) in 137 mM NaCl, 8.1 mM Na₂HPO₄ and 1.5 mM KH₂PO₄ (pH 7.4). Putative protecting agents were added to the cells as solutions in DMSO, with the final concentration of DMSO never exceeding 5 µl/ml of cell suspension. MNNG was added to a concentration of 0.5 mM as a solution in ethanol, giving a final concentration of ethanol of 1%; ethanol alone was by itself without effect. Viability was determined as the percentage of cells that excluded 0.2 % trypan blue. Values are the concentration of compound required to extend by 1 hour the time needed for MNNG to kill 50 % of the viable cells.

On to `CC12Nc3ccccc3C1Cc1ccccc12` (stereo not drawn) [4b-Methyl-THII, cis-4b,5,9b,10-Tetrahydro-4b-methylindeno[1,2-b]inole], for which the pIC₅₀ in assay [1] is 7.1. Compound `Cc1cc(C)c2c(c1)[C@@]1(C)Cc3ccccc3[C@@]1(C)N2` (relative stereo) [4b,6,8,9b-Tetramethyl-THII, cis-4b,5,9b,10-Tetrahydro-4b,6,8,9b-tetramethylindeno[1,2-b]indole] had a pIC₅₀ in assay [1] of 7.4. In assay [1], `Cc1ccc2c(c1)C1Cc3ccccc3C1N2C` (stereo not drawn) [5,8-Dimethyl-THII, cis-4b,5,9b,10-Tetrahydro-5,8-dimethylindenol[1,2-b]indole] returned a pIC₅₀ of 6.4.

`CN1c2ccccc2[C@H]2Cc3ccccc3[C@H]21` (relative stereo) [5-Methyl-THII, cis-4b,5,9b,10-Tetrahydro-5-methylindeno[1,2-b]indole] yielded an RBC-PIV with red blood cells of 0.64 %/µM. Besides, in the assay on rat hepatocytes, the IC50 came out at 2.2 µM. In assay [1], the pIC₅₀ is given as 6.1. Regarding `COc1c(C)cc2c(c1C)C[C@@H]1c3ccccc3N[C@H]21` (relative stereo) [2-Methoxy-1,3-dimethyl-THII, cis-4b,5,9b,10-Tetrahydro-2-methoxy-1,3-dimethylindeno[1,2-b]indole], in assay [1], the pIC₅₀ is 7.2. Still for that read-out and setting: the figure for `Cc1ccc2c(c1)[C@@]1(C)Cc3ccccc3[C@@]1(C)N2C` (relative stereo) [4b,5,8,9b-Tetramethyl-THII, cis-4b,5,9b,10-tetrahydro-4b,5,8,9b-tetramethylindeno[1,2-b]indole] is 6.8; for `CC12Cc3ccccc3C1(C)Nc1ccccc12` (stereo not drawn) [4b,9b-Dimethyl-THII, cis-4b,5,9b,10-Tetrahydro-4b,9b-dimethylindenol[1.2-b]indole] it is 7.2. In turn, `CC12Cc3ccccc3C1Nc1ccccc12` (stereo not drawn) [9b-Methyl-THII, cis-4b,5,9b,10-Tetrahydro-9b-methylindeno [1.2-b]-indole] showed a pIC₅₀ in assay [1] of 7.0.

`CC(=O)Oc1c(C)c(C)c2c(c1C)CCC(C)(CCCC(C)CCCC(C)CCCC(C)C)O2` (stereo not drawn) [α-Tocopheryl-acetate, reference compound]: in the assay with rat hepatocytes, the IC50 stood at 161 µM.

Take `CC(C)c1ccc2c(c1)[C@H]1Cc3ccccc3[C@@]1(C)N2` (relative stereo) [8-Isopropyl-4b-methyl-THII, cis-4b,5,9b,10-Tetrahydro-4b-methyl-8-isopropylindeno-[1,2-b]indole]: the pIC₅₀ in assay [1] stood at 7.7. The same measure, in the same setting: the figure for `CN1c2ccccc2[C@H]2c3ccccc3C[C@H]21` [6-Methyl-iso-THII, cis-5,5a,6,10b-Tetrahydro-methylindeno[2.1-b]indole] is 6.1; for `Fc1ccc2c(c1)[C@H]1Cc3ccccc3[C@H]1N2` (relative stereo) [8-Fluoro-THII, cis-4b,5,9b,10-Tetrahydro-8-fluoroindeno[1,2-b]indole] it is 7.5; for `COc1ccc2c(c1)[C@H]1Cc3c(cc(C)c(OC)c3C)[C@H]1N2` (relative stereo) [2,8-Dimethoxy-1,3,dimethyl-THII, cis-4b,5,9b,10-Tetrahydro-2,8-dimethoxy-1,3-dimethylindeno[1,2-b]indole] it is 8.1.

In the case of `Cc1ccc2c(c1)[C@@]1(C)Cc3ccccc3[C@@]1(C)N2` (relative stereo) [4b,8,9b-Trimethyl-THII, cis 4b,5,9b,10-Tetrahydro-4b,8,9b-trimethylindeno[1,2-b]indole], in assay [1], the pIC₅₀ was 7.6. For the compound `COc1cc(C)c2c(c1)[C@H]1Cc3ccccc3[C@H]1N2` (relative stereo) [8-Methoxy-6-methyl-THII, cis-4b,5,9b,10-Tetrahydro-8-methoxy 6-methylindeno[1,2-b]indole], the pIC₅₀ in assay [1] turned out to be 8.0. `Cc1c(C)c2c(c(C)c1O)CCC(C)(CCCC(C)CCCC(C)CCCC(C)C)O2` (stereo not drawn) [α-Tocopherol (Vitamin E), α-Tocopherol, reference compound] gave an RBC-PIV in the assay with red blood cells of 0.10 %/µM. The same compound had a pIC₅₀ in assay [1] of 5.0.

Turning to `Cc1cc(C)c2c(c1)[C@H]1Cc3ccccc3[C@H]1N2` (relative stereo) [6,8-Dimethyl-THII, cis-4b,5,9b,10-Tetrahydro-6,8-dimethylindeno[1,2-b]indole], the pIC₅₀ in assay [1] worked out at 7.3. Compound `CC(C)c1ccc2c(c1)[C@H]1Cc3ccccc3[C@H]1N2` (relative stereo) [8-Isopropyl-THII, cis-4b,5,9b,10-Tetrahydro-8-iso-propylindeno[1,2-b]indole] came in with a pIC₅₀ in assay [1] of 7.3. For the compound `COc1ccc2c(c1)C1Cc3ccccc3C1N2C` (stereo not drawn) [8-Methoxy-5-methyl-THII, cis-4b.5.9b,10-Tetrahydro-8-methoxy-5-methylindeno[1,2-b]indole], in assay [1], the pIC₅₀ amounted to 7.0. The same measure, in the same setting: with `CC1(C)c2ccccc2[C@H]2Nc3ccccc3[C@H]21` (relative stereo) [10,10-Dimethyl-THII, cis-4b,5,9b,10-Tetrahydro-10,10-dimethylindeno [1,2-b] indole] the figure was 6.9. For the compound `CCN(CC)c1ccc2c(c1)C1Cc3ccccc3C1N2CC` (stereo not drawn) [8-Diethylamino-5-ethyl-THII, cis-4b,5,9b,10-Tetrahydro-5-ethyl-8-(N.N-diethylamino)-indeno[1,2-b]indole], the pIC₅₀ in assay [1] amounted to 7.1. Compound `COc1ccc2c(c1)[C@H]1Cc3ccccc3[C@H]1N2` (relative stereo) [8-Methoxy-THII, cis-4b,5,9b,10-Tetrahydro-8-methoxyindeno[1,2-b]indole] returned an RBC-PIV in the assay on red blood cells of 0.21 %/µM. Compound `CC(C)c1ccc2c(c1)[C@@]1(C)Cc3ccccc3[C@@]1(C)N2` (relative stereo) [8-Isopropyl-4b,9b-dimethyl, cis-4b,5,9b,10-Tetrahydro-4b,9b-dimethyl-8-isopropylindeno[1,2-b]indole] registered a pIC₅₀ in assay [1] of 7.7. Take `Cc1cc2c(c(C)c1O)C[C@@H]1c3ccccc3N[C@H]21` (relative stereo) [2-Hydroxy-1,3-dimethyl-THII, cis-4b,5,9b,10-Tetrahydro-2-hydroxy-1,3-dimethylindeno[1,2-b]indole]: in assay [1], the pIC₅₀ is listed as 7.9. With `CCN(CC)c1ccc2c(c1)C[C@@H]1c3ccccc3N[C@H]21` (relative stereo) [2-Diethylamino-THII, cis-4b,5,9b,10-Tetrahydro-2-(N,N-Diethylamino)-indeno[1,2-b]indole], the pIC₅₀ in assay [1] amounted to 7.2. In assay [1], `COc1ccc2c(c1)[C@@H]1c3ccccc3C[C@@H]1N2` (relative stereo) [9-Methoxy-iso-THII, cis-5,5a,6,10b-Tetrahydro-9-methoxyindeno[2,1-b]indole] registered a pIC₅₀ of 7.7. On the same count and under the same terms, with `CC(C)c1ccc2c(c1)[C@@H]1c3ccccc3C[C@@H]1N2` (relative stereo) [9-Isopropyl-iso-THII, cis-5,5a,6,10b-Tetrahydro-9-isopropylindeno[2,1-b]indole] the figure was 7.4; with `Cc1ccc2c(c1)[C@H]1Cc3ccccc3[C@H]1N2` (relative stereo) [8-Methyl-THII, cis-4b,5,9b,10-Tetrahydro-8 methylindeno[1,2-b]indole], 7.1.

The values are drawn from patent EP0409410B1, “Indenoindole compounds” (UNIVERSITY OF BATH, priority 1989, dated 1991).
